Consider 8 compounds from patent US10196390B2, “TYK2 inhibitors and uses thereof” (Nimbus Lakshmi, Inc., priority 2014, dated 2019).

The target of one assay is TYK2 (Homo sapiens (Human), UniProt P29597). As to the kind of experiment: Tyk2 activity inhibition assay (radioactive kinase assay / Caliper assay). Type of assay: biochemical. A digest of the protocol: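 Two formats were used. Caliper off-chip mobility shift read phosphorylated peptide 30 (3 uM) after 25 min at 28° C with 9.75 nM TYK2 and ATP at 16 uM or 1 mM. Radioactive assay: 10 μM 33P-ATP, 20 μM peptide, 120 min room temp, P81 filter counting.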

A further assay concerns the target JAK2 (Homo sapiens (Human), UniProt O60674). As to the kind of experiment: JAK2 activity inhibition assay (radioactive kinase assay / Caliper assay). Type of assay: biochemical. Conditions: read-out: JAK2 Ki. In short, it runs like this:
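Reaction ran 25 min at 28° C after adding peptide/ATP mix (10 mM MgCl2) to compound and enzyme in HEPES pH 7.5 buffer with Brij-35, Triton and EGTA. EDTA stop, then microfluidic off-chip separation quantified phosphorylated peptide.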

Another assay deals with Tyk2-pSTAT4. As to the kind of experiment: IL-12 induced pSTAT4 in human PBMC. In kind it is cell-based. Conditions: read-out: Tyk2-pSTAT4 EC50. In short, it runs like this:
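PBMC (200,000 cells/well) in serum-containing medium were preincubated with compound for 1 hr at 37 C, final DMSO 0.1%. Stimulation with 1.7 ng/mL IL-12 (final) for 30 minutes. pSTAT4 and total STAT4 were measured in lysates by MSD.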

The next assay concerns JAK2-pSTAT5. As to the kind of experiment: GM-CSF induced pSTAT5 in human PBMC. In kind it is cell-based. Conditions: read-out: JAK2-pSTAT5 EC50.
For another assay, the system named is IL-12/IL-18 induced IFNγ. As to the kind of experiment: Acute mouse model for IL-12/IL-18 induced IFNγ in serum. In kind it is in vivo, C57BL/6 mice. Conditions: in mice, efficacious dose of 30 mg/kg SC. Here is the method:
C57BL/6 mice mice are dosed PO or SC with test compound at various doses or vehicle (n=9 or 10 per group) and then, 30 minutes later, injected IP with 10 ng IL-12 and 1 μg IL-18. Three hours after IL-12/IL-18 injection, mice were bled and serum isolated. Concentration of cytokines in serum were determined using CBA analysis.

For another assay, the system named is IL-12 induced IFNγ. As to the kind of experiment: Ex vivo mouse IL-12 induced IFNγ studies. Type of assay: in vivo, C57/BL6 mice. Particulars: ex vivo mouse model, doses of ≤10 mg/kg. Here is the method: C57/BL6 mice were given a single oral dose of either vehicle or different doses of compound at a volume of 10 mL/kg. 30 minutes to 1 hour after dosing, animals were euthanized and blood was collected via vena cava into sodium heparin blood collection tubes and inverted several times. Blood was then plated on anti-CD3 coated plates and stimulated with 2 ng/ml of mouse IL-12 in RPMI media for 24 hours at 37° C. in humidified incubator with 5% CO2. At the end of the incubation, blood was centrifuged at 260 g for 5 minutes to collect supernatant. IFNγ concentration in the supernatant was determined with mouse IFNγ MSD kit per manufacture's instruction (Meso Scale Discovery). At the time of the blood collection, plasma was collected for drug level analysis by LC-MS/MS.

Where [1] appears, read: IL-12 induced pSTAT4, human PBMC.
Setting [2] is: GM-CSF induced pSTAT5, human PBMC.

Where two headings read alike, the source gives them in different places.

By Ki is commonly meant a dissociation constant, usually derived from enzyme kinetics or from competition with a known ligand. In general, EC50 refers to the concentration that produces a half-maximal response.

Chain of JAK2 (O60674 whole entry): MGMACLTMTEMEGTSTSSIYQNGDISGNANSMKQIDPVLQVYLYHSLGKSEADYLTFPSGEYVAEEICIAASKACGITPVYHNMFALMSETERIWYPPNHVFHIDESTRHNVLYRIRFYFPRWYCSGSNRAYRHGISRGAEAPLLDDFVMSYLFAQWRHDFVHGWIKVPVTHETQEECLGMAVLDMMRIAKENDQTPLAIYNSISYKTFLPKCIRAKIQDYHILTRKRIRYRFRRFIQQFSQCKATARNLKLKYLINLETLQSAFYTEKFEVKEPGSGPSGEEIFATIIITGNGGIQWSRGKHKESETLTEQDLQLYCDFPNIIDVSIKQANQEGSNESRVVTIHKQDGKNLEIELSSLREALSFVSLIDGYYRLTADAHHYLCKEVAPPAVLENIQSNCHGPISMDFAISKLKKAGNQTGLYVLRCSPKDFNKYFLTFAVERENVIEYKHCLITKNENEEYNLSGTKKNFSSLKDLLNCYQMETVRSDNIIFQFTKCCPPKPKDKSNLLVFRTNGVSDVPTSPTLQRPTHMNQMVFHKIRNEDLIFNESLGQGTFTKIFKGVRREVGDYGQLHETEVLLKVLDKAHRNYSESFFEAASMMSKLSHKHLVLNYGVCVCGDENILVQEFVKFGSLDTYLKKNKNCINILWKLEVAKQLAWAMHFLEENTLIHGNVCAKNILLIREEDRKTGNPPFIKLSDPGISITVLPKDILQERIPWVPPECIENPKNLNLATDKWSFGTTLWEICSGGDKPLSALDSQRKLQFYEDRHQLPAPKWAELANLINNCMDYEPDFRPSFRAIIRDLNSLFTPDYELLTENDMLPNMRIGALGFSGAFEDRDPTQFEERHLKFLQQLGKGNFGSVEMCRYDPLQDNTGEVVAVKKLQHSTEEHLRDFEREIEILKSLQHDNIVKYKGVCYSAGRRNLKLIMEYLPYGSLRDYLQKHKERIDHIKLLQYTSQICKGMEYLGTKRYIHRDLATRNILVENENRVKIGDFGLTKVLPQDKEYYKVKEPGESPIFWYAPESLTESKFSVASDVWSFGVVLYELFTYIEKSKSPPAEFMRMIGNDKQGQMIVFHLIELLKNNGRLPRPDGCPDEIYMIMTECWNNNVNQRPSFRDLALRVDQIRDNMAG
Chain of TYK2 (P29597 whole entry): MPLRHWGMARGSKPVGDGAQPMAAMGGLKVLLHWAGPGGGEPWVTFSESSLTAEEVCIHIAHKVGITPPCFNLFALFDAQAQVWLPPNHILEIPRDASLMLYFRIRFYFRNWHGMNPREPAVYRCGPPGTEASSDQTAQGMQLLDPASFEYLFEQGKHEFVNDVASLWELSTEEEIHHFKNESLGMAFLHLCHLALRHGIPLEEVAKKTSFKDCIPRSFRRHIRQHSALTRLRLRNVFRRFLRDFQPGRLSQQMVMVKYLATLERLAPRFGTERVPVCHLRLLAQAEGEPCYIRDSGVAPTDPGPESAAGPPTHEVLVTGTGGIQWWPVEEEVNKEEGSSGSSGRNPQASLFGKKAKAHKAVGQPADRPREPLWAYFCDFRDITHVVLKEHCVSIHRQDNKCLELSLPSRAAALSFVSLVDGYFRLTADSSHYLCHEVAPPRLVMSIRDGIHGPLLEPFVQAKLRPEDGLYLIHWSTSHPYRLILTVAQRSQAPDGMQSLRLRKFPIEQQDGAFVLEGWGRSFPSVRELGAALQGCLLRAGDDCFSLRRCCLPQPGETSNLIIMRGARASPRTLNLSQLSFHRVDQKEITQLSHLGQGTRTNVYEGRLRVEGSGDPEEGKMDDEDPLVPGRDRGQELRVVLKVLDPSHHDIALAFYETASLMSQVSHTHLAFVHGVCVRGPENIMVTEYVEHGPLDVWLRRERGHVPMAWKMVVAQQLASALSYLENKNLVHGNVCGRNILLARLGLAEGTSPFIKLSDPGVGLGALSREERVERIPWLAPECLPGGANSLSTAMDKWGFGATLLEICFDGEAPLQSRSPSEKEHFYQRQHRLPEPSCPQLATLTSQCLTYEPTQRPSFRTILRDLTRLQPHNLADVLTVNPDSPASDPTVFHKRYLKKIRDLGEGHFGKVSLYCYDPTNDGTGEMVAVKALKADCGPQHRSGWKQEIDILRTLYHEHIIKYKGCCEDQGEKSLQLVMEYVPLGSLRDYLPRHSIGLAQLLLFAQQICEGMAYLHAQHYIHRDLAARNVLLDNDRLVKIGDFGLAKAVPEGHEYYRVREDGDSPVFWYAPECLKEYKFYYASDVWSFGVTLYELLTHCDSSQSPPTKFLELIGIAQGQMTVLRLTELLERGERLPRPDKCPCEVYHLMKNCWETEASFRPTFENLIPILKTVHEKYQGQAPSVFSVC

For the compound `CCNC(=O)Cc1ccc(Nc2nc(-c3c(F)cccc3F)nc3c2C(=O)NC3)cc1` [Compound I-80, 2-(4-((2-(2,6-difluorophenyl)-5-oxo-6,7-dihydro-5H-pyrrolo[3,4-d]pyrimidin-4-yl)amino)phenyl)-N-ethylacetamide], the figures for the Ki at TYK2 and at JAK2 were below 10 nM and 100 to 1000 nM, respectively. Also, the EC50 in the assay with Tyk2-pSTAT4 (Homo sapiens, PBMC) is below 2000 nM; in the assay on JAK2-pSTAT5 (Homo sapiens, PBMC), above 20000 nM. Further, the “IL-12/IL-18 induced IFNγ production in vivo” value in the assay with IL-12/IL-18 induced IFNγ was “inhibited”.

As for `CCNC(=O)c1ccc(Nc2cc(-c3c(F)cccc3F)nc3c2C(=O)NC3)nc1` [Compound I-136, 6-((2-(2,6-difluorophenyl)-5-oxo-6,7-dihydro-5H-pyrrolo[3,4-b]pyridin-4-yl)amino)-N-ethylnicotinamide], the Ki on TYK2 is below 10 nM; at JAK2 it was 10 to 100 nM. For the same compound, the EC50 was below 2000 nM in the assay on Tyk2-pSTAT4 (Homo sapiens, PBMC) and below 2000 nM in the assay on JAK2-pSTAT5 (Homo sapiens, PBMC). Moreover, the “IL-12 induced IFNγ production” value with IL-12 induced IFNγ was “significantly inhibit”.

Regarding `CC(C)(C)NC(=O)c1ccc(Nc2cc(-c3c(F)cccc3F)nc3c2C(=O)NC3)nc1` [Compound I-165, N-(tert-butyl)-6-((2-(2,6-difluorophenyl)-5-oxo-6,7-dihydro-5H-pyrrolo[3,4-b]pyridin-4-yl)amino)nicotinamide], the values for the inhibition constant (Ki) on TYK2 and on JAK2 were below 10 nM and 10 to 100 nM, respectively. For the same compound, the figures for the EC50 in the assay on Tyk2-pSTAT4 (setting [1]) and in the assay on JAK2-pSTAT5 (setting [2]) were below 2000 nM and 2000 to 20000 nM, respectively. Besides, the “IL-12 induced IFNγ production” value in the assay on IL-12 induced IFNγ was “significantly inhibit”.

Regarding `O=C1NCc2nc(-c3c(F)cccc3F)cc(Nc3ccc(C(=O)N4CCOCC4)cc3)c21` [Compound I-231, 2-(2,6-difluorophenyl)-4-((4-(morpholine-4-carbonyl)-phenyl)amino)-6,7-dihydro-5H-pyrrolo[3,4-b]pyridin-5-one], the values for the inhibitory constant (Ki) on TYK2 and on JAK2 were below 10 nM and 10 to 100 nM, respectively. Besides, the 50% effective concentration (EC50) was below 2000 nM with Tyk2-pSTAT4 (Homo sapiens, PBMC) and 2000 to 20000 nM in the assay on JAK2-pSTAT5 (setting [2]).

Take `CC(C)NC(=O)c1ccc(Nc2cc(-c3c(F)cccc3F)nc3c2C(=O)NC3)cc1` [Compound I-232, 4-((2-(2,6-difluorophenyl)-5-oxo-6,7-dihydro-5H-pyrrolo[3,4-b]pyridin-4-yl)amino)-N-isopropylbenzamide]: the inhibition constant Ki at TYK2 is below 10 nM; at JAK2, 10 to 100 nM. Also, the 50% effective concentration (EC50) with Tyk2-pSTAT4 (Homo sapiens, PBMC) is below 2000 nM; in the assay with JAK2-pSTAT5 (Homo sapiens, PBMC), 2000 to 20000 nM.

For `CC(=O)Nc1ccc(Nc2cc(-c3c(F)cccc3F)nc3c2C(=O)NC3)nc1` [Compound I-237, N-(6-((2-(2,6-difluorophenyl)-5-oxo-6,7-dihydro-5H-pyrrolo[3,4-b]pyridin-4-yl)amino)pyridin-3-yl)acetamide], the Ki at TYK2 was below 10 nM; on JAK2, 10 to 100 nM. The figures for the concentration for a half-maximal effect (EC50) in the assay with Tyk2-pSTAT4 (setting [1]) and with JAK2-pSTAT5 (setting [2]) were below 2000 nM and above 20000 nM, respectively.

`C[C@@H]1COC[C@@H](C)N1c1ccc(Nc2cc(-c3c(F)cccc3F)nc3c2C(=O)NC3)nc1` [Compound I-263, 2-(2,6-difluorophenyl)-4-((5-((3R,5R)-3,5-dimethylmorpholino)pyridin-2-yl)amino)-6,7-dihydro-5H-pyrrolo[3,4-b]pyridin-5-one]: the inhibition constant (Ki) on TYK2 and on JAK2 was below 10 nM in each case. Moreover, the EC50 in the assay on Tyk2-pSTAT4 (setting [1]) and with JAK2-pSTAT5 (setting [2]) was below 2000 nM in each case.

For `O=C1NCc2nc(-c3c(F)cccc3F)cc(Nc3ccc(NC4CCC4)cn3)c21` [Compound I-276, 4-((5-(cyclobutylamino)pyridin-2-yl)amino)-2-(2,6-difluoro-phenyl)-6,7-dihydro-5H-pyrrolo[3,4-b]pyridin-5-one], the Ki on TYK2 is below 10 nM; on JAK2 it was 10 to 100 nM. Also, the concentration giving a half-maximal response (EC50) with Tyk2-pSTAT4 (setting [1]) and in the assay on JAK2-pSTAT5 (setting [2]) was below 2000 nM each time.
